According to patent publication US20060111305A1, “Metabolites of certain [1,4]diazepino[6,7,1-ij]quinoline derivatives and methods of preparation and use thereof” (Wyeth, priority 2004, published 2006):

Tests used:
[1] = Metabolites of DCDQ generated by liver microsomes and hepatocytes, LC/MS characterization (Table 6); format: in vitro ADME; settings: MM mouse, RM rat, DM dog, HM human liver microsomes; HH human hepatocytes
From the text: An Agilent Model 1100 HPLC system (Agilent Technologies, Palo Alto, Calif.) including an autosampler and diode array UV detector was used for LC/MS analysis. The UV detector was set to monitor 200 to 400 nm. For selected LC/MS analysis, radiochromatograms were acquired using a β-Ram model 3 radioactivity flow detector (IN/US Systems Inc., Tampa, Fla.) equipped with a solid scintillant flow cell. Separations were accomplished on a Phenomenex Luna C18(2) column (2×150 mm, 5 μm) under the same conditions as described above.
(§1) The mass spectrometer used for metabolite characterization was a Micromass Q-TOF-2 quadrupole time-of-flight hybrid mass spectrometer (Nature Corp.). The mass spectrometer was equipped with an electrospray ionization (ESI) interface and operated in the positive ionization mode. Collision energy settings of 5 and 30 eV were used for full MS and MS/MS scans, respectively. Settings for the mass spectrometer are listed below.
Mass spectra were obtained by LC/MS and LC/MS/MS analysis for DCDQ and its metabolites.

[2] = Metabolites of DCDQ identified in rats by LC/MS analysis (Table 18); format: in vivo, Sprague-Dawley rats; settings: P = plasma, U = urine, B = brain, F = feces
Method: An Agilent Model 1100 HPLC system (Agilent Technologies, Wilmington, Del.) including an autosampler and diode array UV detector was used for LC/MS analysis of plasma and urine samples. The UV detector was set to monitor 200 to 400 nm. For selected LC/MS analyses, radiochromatograms were acquired using a β-Ram model 3 radioactivity flow detector (IN/US Systems Inc., Tampa, Fla.) equipped with a solid scintillant flow cell. Fecal samples were also analyzed using a Waters Alliance model 2690 HPLC system. It was equipped with a built-in autosampler and a model 996 diode array UV detector set to 210-350 nm. The HPLC flow was split between a Radiomatic model 150TR flow scintillation analyzer (Perkin Elmer) and the mass spectrometer. Other HPLC conditions were the same as condition B described above.
as §1, with “characterization for plasma and urine” for “characterization”, “(Waters).” for “(Nature Corp.).”
A Micromass Quattro Micro mass spectrometer (Waters) was also used to analyze the fecal samples. It was equipped with an electrospray ionization (ESI) interface and operated in the positive ionization mode. Settings for the mass spectrometer are listed below.
LC/MS/MS in the selected reaction-monitoring (SRM) mode (LC/SRM) was conducted with the triple quadruple mass spectrometer to monitor DCDQ and its metabolites in fecal samples. The transitions monitored are listed below.

[3] = Rat urinary excretion and metabolite profiles after single oral 5 mg/kg [14C]DCDQ; format: in vivo, Sprague-Dawley rats; settings: for Chromatographic distribution of radioactivity in male rat urine / Percentage of dose for urinary metabolites in rats: oral 5 mg/kg, mean n = 3; for radioactive dose recovered in urine: male rats
Method: At sacrifice, blood samples were collected by cardiac puncture into tubes containing EDTA as the anticoagulant and placing them on ice. Aliquots of 50 μL were removed for combustion and determination of radioactivity content. Plasma was immediately obtained from the remaining blood by centrifugation at 4° C. Brains were excised after perfusion with 50 mL of chilled sterile saline. Urine samples were collected on dry ice at intervals of 0-8 and 8-24 hour post-dosing. Feces were collected at intervals of 0-8 and 8-24 hr post-dosing at room temperature and were homogenized as described previously. The biological specimens and aliquots of the dosing solution at pre- and post-dose were stored at approximately −70° C. until analyzed.
Plasma (20 μL) and urine (50 μL) aliquots were analyzed for radioactivity concentrations. Radioactivity determinations of dose, plasma and urine were made with a Tri-Carb Model 3100 TR/LL liquid scintillation counter (LSC) (Perkin Elmer) using 10 mL of Ultima Gold as the scintillation fluid.
Urine was analyzed for radioactivity concentration as and analyzed for metabolite profiles by direct injection onto the HPLC column. LC/MS analyses for metabolite identification were also carried out with urine samples.
A Waters model 2690 HPLC system (Waters Corp., Milford, Mass.) with a built-in autosampler was used for analysis. Separations were accomplished on a Phenomenex Luna C18(2) column (150×2.0 mm, 5 μm) (Phenomenex, Torrance, Calif.). The sample chamber of the autosampler was maintained at 4° C., while the column was at ambient temperature of about 20° C. A variable wavelength UV detector set to monitor 250 nm and a Flo-One β Model A525 radioactivity detector described above were used for data acquisition. The HPLC mobile phase consisted of 10 mM ammonium acetate, pH 4.5 (A) and methanol (B), and was delivered at 0.2 mL/min. Chromatographic condition A was used for dose analysis, while condition B was used for analysis of urine and plasma, brain and fecal extracts.

## c1cc2c3c(c1)[C@H]1CCC[C@H]1CN3CCNC2 [DCDQ, (9aR,12aS)-4,5,6,7,9,9a,10,11,12,12a-decahydro-cyclopenta[c][1,4]diazepine[6,7,1-ij]quinoline, reference compound]
[1]
  Source: MM, RM, DM, HM, HH
[2]
  Matrix: P, U, F
[3]; 0-8 hr
  Chromatographic distribution of radioactivity in male rat urine: 1.29%
  Percentage of dose for urinary metabolites in rats: 0.42%
[3]; 8-24 hr
  Chromatographic distribution of radioactivity in male rat urine: 1.46%
  Percentage of dose for urinary metabolites in rats: 0.51%

## OC1CN2C[C@@H]3CCC[C@@H]3c3cccc(c32)CN1 (stereo partly shown) [Metabolite M1, hydroxy DCDQ]
[1]
  Source: HM, HH
[2]
  Matrix: P, U, B
[3]; 0-8 hr
  Chromatographic distribution of radioactivity in male rat urine: 26.9%
  Percentage of dose for urinary metabolites in rats: 8.67%
[3]; 0-24 hr
  Percentage of dose for urinary metabolites in rats: 16.4%
[3]; 8-24 hr
  Chromatographic distribution of radioactivity in male rat urine: 22.5%
  Percentage of dose for urinary metabolites in rats: 7.74%

## OC1[C@@H]2CCC[C@@H]2c2cccc3c2N1CCNC3 (stereo partly shown) [Metabolite M2, hydroxy DCDQ]
[1]
  Source: MM, RM, DM, HM, HH
[2]
  Matrix: P, U
[3]; 0-8 hr
  Chromatographic distribution of radioactivity in male rat urine: 9.51%
  Percentage of dose for urinary metabolites in rats: 3.16%
[3]; 0-24 hr
  Percentage of dose for urinary metabolites in rats: 5.09%
[3]; 8-24 hr
  Chromatographic distribution of radioactivity in male rat urine: 5.83%
  Percentage of dose for urinary metabolites in rats: 1.94%

## [O-][N+]12CCN=Cc3cccc(c31)[C@H]1CCC[C@H]1C2 (stereo partly shown) [Metabolite M5, DCDQ imine N-oxide]
[1]
  Source: DM, HM, HH

## O=C(O)[C@H]1O[C@@H](OC(=O)N2CCN3C[C@@H]4CCC[C@@H]4c4cccc(c43)C2)[C@H](O)[C@@H](O)[C@@H]1O [Metabolite M6, carbamoyl glucuronide of DCDQ]
[1]
  Source: DM, HM, HH

## O=C1CC[C@@H]2c3cccc4c3N(CCNC4)C[C@H]12 [Metabolite M7, 17-keto DCDQ]
[2]
  Matrix: P, U, B
[3]; 0-8 hr
  Chromatographic distribution of radioactivity in male rat urine: 9.68%
  Percentage of dose for urinary metabolites in rats: 3.16%
[3]; 0-24 hr
  Percentage of dose for urinary metabolites in rats: 6.60%
[3]; 8-24 hr
  Chromatographic distribution of radioactivity in male rat urine: 10.1%
  Percentage of dose for urinary metabolites in rats: 3.44%

## c1cc2c3c(c1)[C@H]1CCC[C@H]1CN3CCNC2 [[^14C]DCDQ]
[3]; 0-8 hour period
  radioactive dose recovered in urine: 32.5%
[3]; 8-24 hour period
  radioactive dose recovered in urine: 34.2%
[3]; first 24 hours post-dose
  radioactive dose recovered in urine: 66.7±5.0%
